Measurements published in patent publication US20260125357A1, “LACTATE ENHANCING COMPOUNDS AND USES THEREOF” (GLIAPHARM SA, priority 2022, published 2026).

How the values were obtained:
[1] = system: APOE4(+) transgenic mice; experiment: Morris Water Maze memory in APOE4(+) mouse model of Alzheimer's disease; type: in vivo; details: 30 mg/kg, 7 days after training
From the text: Mouse models carrying the APOE4 human allele have a decrease in metabolic gene expression and cerebral glucose uptake compared to APOE3-expressing model (Williams et al., 2020, neurobiol dis, 136:104742; Lin et al., 2015, J Cereb Blood Flow Metabl, 37(1):217-226; Alata et al., 2015, J Cereb Blood Flow Metab, 35(1):86-94. These physiological perturbations induce a brain hypometabolism, which recapitulates brain metabolic status observed in AD carriers of APOE4 allele. Male and female APOE4(+) and APOE3(+) (controls) transgenic mice are used at 3 months of age. Memory of APOE3(+) mice treated with Veh and APOE4 (+) mice treated with Veh or compound (2) at 10 mg/kg and 30 mg/kg is tested in the Morris Water Maze, as described below. Treatment is administered at each day of training, 30 minutes before the first training session. No treatment is administered during memory retention test.
Morris Water Maze (MWM), a well-established spatial and contextual memory test, will be used. […] A number of parameters including the latency to find the platform, time spent around the platform, path efficiency, % time spent in each quadrant is recorded, using automated tracking software (Ethovision). The type of exploration (direct, random, scan of the area) is also recorded. […]

[2] = system: human iPSC-derived astrocytes; experiment: Uptake of 2-DG in human iPSC-derived astrocytes; type: cell-based; details: treated for 1.5 hours
Experimental: Astrocytes grown on 12-well plates and transfected with either scramble siRNA or GLUT1 siRNA were used. 1 day after having replaced transfection medium (DIV13), 2DG uptake was measured after treatment for 30 min with Vehicle (0.1% DMSO) or with the compound of the invention (1) to (5) (concentrations of 0.1 to 10 μM). During treatment, 1 mM 2DG was added to the medium for assessment of 2DG uptake. At the end of the stimulation, medium was removed and replaced with 150 μl NaOH 0.1M, and stored at −20° C. After thawing, cells were collected using cell scraper and heated for 40 min at 85° C. Then, 150 ul HCl 0.1M and TAE buffer 200 mM was added to each condition. 20 μl were added to a transparent 96-well plate and 2DG was quantified by addition of a reaction solution containing 50 mM TAE, 50 mM KCl, 0.02% BSA, 0.1 mM NADP, 0.2 U/ml diaphorase, 2 mM resazurin and 20 U/ml glucose-6-phosphate dehydrogenase. Concentration of 2DG in samples were calculated by comparison with standard curve of deoxy-glucose-6-phophate ranging from 0 to 1 nmoles.
Human iPSC-derived astrocytes were purchased from NCardia (NCyte Astrocytes) and were plated at a density of ˜10′000 cells/cm^2 in 96-well or 12-well plates, according to the manufacturer's instructions and using the recommended media. […] Uptake of 2-DG and release of lactate were quantified as described previously.

## COc1cc2ccnc(Nc3ccc(S(C)(=O)=O)cc3)c2cc1OC [Compound 2, 6,7-dimethoxy-N-(4-methylsulfonylphenyl)isoquinolin-1-amine]
[1]
  memory in the Morris Water Maze: significant increase of memory
[2]
  uptake of 2-DG: increased uptake of 2-DG
